# Key:
# [1] = test system: Middle East respiratory syndrome-related coronavirus; assay: microbe, parasite or virus in culture; assay type: functional, Chlorocebus sabaeus; settings: Vero 76
# [2] = (§1) Functional metabolic assay to measure dose dependent changes in cell viability from drug treatment in HeLa-ACE2 cells. Hela-ACE2 cells are seeded prior to drug treatment, then incubated in MTT (3-[4,5-dimethylthiazol-2-yl]-2,5- diphenyltetrazolium bromide) labelling reagent and SDS. Absorbance is measured at 560 and 750 nm and analyzed by Gen5 software. The assay has been performed by Icahn School of Medicine at Mount Sinai.; assay type: toxicity, cell-based; settings: human; for CC50: HeLa-ACE2 cells; for CC10: hela-ace2
# [3] = as §1, with “iPSC-Pneumocyte” for “HeLa-ACE2”, “The” for “Hela-ACE2”, “seeded” for “seeded prior to drug treatment,”, “labeling” for “labelling”; assay type: toxicity, cell-based; settings: human; for CC50: iPSC-Pneumocyte cells; for CC10: pneumocyte
# [4] = Functional metabolic assay to measure dose dependent changes in cell viability from drug treatment in Vero E6/TMPRSS2 cells (cotreated with P-gp inhibitor, Elacridar). Cells are treated with antiviral candidates that have been serially diluted. Cytotoxicity is reported via measuring absorbance and analysis of MTT/MTS assays in uninfected cells. The assay has been performed by Icahn School of Medicine at Mount Sinai.; assay type: toxicity, cell-based, VeroE6/TMPRSS2; settings: chlorocebus sabaeus
SMILES,CC50 [1] [µM],CC50 [2] [µM],CC10 [2] [µM],CC50 [3] [µM],CC10 [3] [µM],"CC50 ([4]; Vero E6/TMPRSS2 cells, with Elacridar (P-gp inhibitor), concentration not stated) [µM]",CC10 ([4]; veroe6/tmprss2) [µM]
CNC(=O)c1c[nH]c2ncnc(N[C@H](c3ccc4c(c3)S(=O)(=O)CCC4)C(C)C)c12,> 32,> 20,> 20,> 50,> 50,–,–
CNCc1cc(-c2cc3c(N[C@@H](c4ccc5c(c4)S(=O)(=O)CCC5)C(C)C)ncnc3[nH]2)co1,–,> 20,> 20,> 50,> 50,> 5,> 5
